Laboratory results: patent US10125118B2, “Heteroaryl compounds and their use as therapeutic drugs” (Dong-A Socio Holdings Co., Ltd., priority 2015, dated 2018)

Key:
[1] = target: human c-MER catalytic domain (Homo sapiens (Human), UniProt Q12866); test: LanthaScreen TR-FRET kinase assay, c-MER; conditions: read-out: Mer TK inhibition (IC50); Biochemical IC50, TR-FRET, 10 uM ATP
[2] = system: CD8-MerTK in Ba/F3-CDM cells; test: In cell MER kinase assay, Ba/F3-CDM cell proliferation without IL-3 (Celltiter-Glo); format: cell-based, murine; conditions: 48 hours compound treatment, read-out: Cell growth inhibition (GI50)
Method: To establish an in cell kinase assay for MerTK kinase, the IL-3 dependent Ba/F3 cells of murine lymphoid origin was transfected with CD8-MerTK. […] For a routine cellular assay, Ba/F3-CDM cells were seeded at 2,000 cells per well in 384-well cell culture plate containing DMEM/10% FBS culture media and incubated for 24 hours before addition of compounds pre-diluted in culture media. Following compound treatment, cells were further incubated for 48 hours and the proliferation was measured. To discriminate a Ba/F3 growth inhibition by a specific inhibition of MerTK kinase following compound treatment vs growth inhibition due to a non-specific unintended cytotoxicity of compounds, we routinely carried out control sets of Ba/F3 cells in parallel that grown in IL3-supplemented growth media. In the presence of IL-3, the proliferation of Ba/F3 is no longer dependent on the MerTK activity. Cell growth and proliferation was measured with Celltiter-Glo™ system (Promega, USA) according to the manufacturer's instruction. The half-maximal growth inhibitory concentration (GI50) value was calculated with Prism6.0 software (GraphPad, USA).

Sequence of human c-MER catalytic domain (Q12866 587-858): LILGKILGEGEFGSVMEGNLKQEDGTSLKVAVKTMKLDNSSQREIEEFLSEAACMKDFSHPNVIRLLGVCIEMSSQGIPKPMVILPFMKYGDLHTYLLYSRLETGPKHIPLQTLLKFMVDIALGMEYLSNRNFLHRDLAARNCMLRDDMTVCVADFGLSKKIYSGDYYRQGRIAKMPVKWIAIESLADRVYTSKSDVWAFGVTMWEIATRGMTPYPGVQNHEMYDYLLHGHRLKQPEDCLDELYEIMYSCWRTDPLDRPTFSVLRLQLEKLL

Row | SMILES | IC50 [1] [nM] | GI50 [2] [nM]
1 | CN(C)C1CCN(Cc2ccc(-c3ccc(CO[C@H]4CCC[C@@H]4NC(=O)c4cc(-c5cnn(C)c5)cnc4N)cc3)cc2)C1 (stereo partly drawn) [Example 193, 2-amino-N-((1S,2S)-2-((4′-((3-(dimethylamino)pyrrolidin-1-yl)methyl)-[1,1′-biphenyl]-4-yl)methoxy)cyclopentyl)-5-(1-methyl-1H-pyrazol-4-yl)nicotinamide] | < 10 | < 100
2 | CN1CCN(Cc2ccc(-c3ccc(CO[C@H]4CCC[C@@H]4NC(=O)c4nc(-c5cnn(C)c5)cnc4N)cc3)cc2)CC1 [Example 194, 3-amino-6-(1-methyl-1H-pyrazol-4-yl)-N-((1S,2S)-2-((4′-((4-methylpiperazin-1-yl)methyl)-[1,1′-biphenyl]-4-yl)methoxy)cyclopentyl)pyrazine-2-carboxamide] | < 10 | < 100
3 | CN1CCN(Cc2ccc(-c3ccc(CO[C@H]4CCC[C@@H]4NC(=O)c4cc(-c5cnn(C)c5)cnc4N)cc3)cc2F)CC1 [Example 195, 2-amino-N-((1S,2S)-2-((3′-fluoro-4′-((4-methylpiperazin-1-yl)-methyl)-[1,1′-biphenyl]-4-yl)methoxy)cyclopentyl)-5-(1-methyl-1H-pyrazol-4-yl)-nicotinamide] | < 10 | < 100
4 | CN1CCN(Cc2c(F)cc(-c3ccc(CO[C@H]4CCC[C@@H]4NC(=O)c4cc(-c5cnn(C)c5)cnc4N)cc3)cc2F)CC1 [Example 196, 2-amino-N-((1S,2S)-2-((3′,5′-difluoro-4′-((4-methylpiperazin-1-yl)methyl)-[1,1′-biphenyl]-4-yl)methoxy)cyclopentyl)-5-(1-methyl-1H-pyrazol-4-yl)nicotinamide] | < 10 | 100 to 500
5 | CN1CCN(Cc2ccc(-c3ccc(CO[C@H]4CCC[C@@H]4NC(=O)c4cc(-c5cnn(C)c5)cnc4N)cc3)cc2C(F)(F)F)CC1 [Example 197, 2-amino-5-(1-methyl-1H-pyrazol-4-yl)-N-((1S,2S)-2-((4′-((4-methylpiperazin-1-yl)methyl)-3′-(trifluoromethyl)-[1,1′-biphenyl]-4-yl)methoxy)-cyclopentyl)nicotinamide] | < 10 | < 100
6 | Cc1cc(-c2ccc(CO[C@H]3CCC[C@@H]3NC(=O)c3cc(-c4cnn(C)c4)cnc3N)cc2)ccc1CN1CCN(C)CC1 [Example 198, 2-amino-5-(1-methyl-1H-pyrazol-4-yl)-N-((1S,2S)-2-((3′-methyl-4′-((4-methylpiperazin-1-yl)methyl)-[1,1′-biphenyl]-4-yl)methoxy)cyclopentyl)-nicotinamide] | < 10 | < 100
7 | CN1CCN(Cc2ccc(-c3ccc(CO[C@H]4CCC[C@@H]4NC(=O)c4cc(-c5cnn(C)c5)cnc4N)cc3)cc2O)CC1 [Example 199, 2-amino-N-((1S,2S)-2-((3′-hydroxy-4′-((4-methylpiperazin-1-yl)methyl)-[1,1′-biphenyl]-4-yl)methoxy)cyclopentyl)-5-(1-methyl-1H-pyrazol-4-yl)nicotinamide] | < 10 | < 100
8 | CN1CCN(Cc2ccc(-c3ccc(CO[C@H]4CCC[C@@H]4NC(=O)c4cc(-c5cnn(C)c5)cnc4N)cc3)cc2[N+](=O)[O-])CC1 [Example 200, 2-amino-5-(1-methyl-1H-pyrazol-4-yl)-N-((1S,2S)-2-((4′-((4-methylpiperazin-1-yl)methyl)-3′-nitro-[1,1′-biphenyl]-4-yl)methoxy)-cyclopentyl)nicotinamide] | < 10 | 100 to 500
9 | CN1CCN(Cc2ccc(-c3ccc(CO[C@H]4CCC[C@@H]4NC(=O)c4cc(-c5cnn(C)c5)cnc4N)cc3)c(Cl)c2)CC1 [Example 202, 2-amino-N-((1S,2S)-2-((2′-chloro-4′-((4-methylpiperazin-1-yl)-methyl)-[1,1′-biphenyl]-4-yl)methoxy)cyclopentyl)-5-(1-methyl-1H-pyrazol-4-yl)-nicotinamide] | < 10 | 100 to 500
10 | CN1CCN(Cc2ccc(-c3ccc(CO[C@H]4CCC[C@@H]4NC(=O)c4cc(-c5cnn(C)c5)cnc4N)cc3)cn2)CC1 [Example 203, 2-amino-5-(1-methyl-1H-pyrazol-4-yl)-N-((1S,2S)-2-((4-(6-((4-methylpiperazin-1-yl)methyl)pyridin-3-yl)benzyl)oxy)cyclopentyl)nicotinamide] | < 10 | 100 to 500
11 | Cn1cc(-c2cnc(N)c(C(=O)N[C@H]3CCC[C@@H]3OCc3ccc(-c4ccc(CN5CCN(CCO)CC5)c(C(F)(F)F)c4)cc3)c2)cn1 [Example 205, 2-amino-N-((1S,2S)-2-((4′-((4-(2-hydroxyethyl)piperazin-1-yl)methyl)-3′-(trifluoromethyl)-[1,1′-biphenyl]-4-yl)methoxy)cyclopentyl)-5-(1-methyl-1H-pyrazol-4-yl)nicotinamide] | < 10 | < 100
12 | Cn1cc(-c2cnc(N)c(C(=O)N[C@H]3CCC[C@@H]3OCc3ccc(-c4ccc(CN5CCN(CCO)CC5)cc4Cl)cc3)c2)cn1 [Example 206, 2-amino-N-((1S,2S)-2-((2′-chloro-4′-((4-(2-hydroxyethyl)-piperazin-1-yl)methyl)-[1,1′-biphenyl]-4-yl)methoxy)cyclopentyl)-5-(1-methyl-1H-pyrazol-4-yl)nicotinamide] | < 10 | 100 to 500
13 | CC(c1ccc(-c2ccc(CO[C@H]3CCC[C@@H]3NC(=O)c3cc(-c4cnn(C)c4)cnc3N)cc2)cc1)N1CCN(C)CC1 (stereo partly drawn) [Example 208, 2-amino-5-(1-methyl-1H-pyrazol-4-yl)-N-((1S,2S)-2-((4′-(1-(4-methylpiperazin-1-yl)ethyl)-[1,1′-biphenyl]-4-yl)methoxy)cyclopentyl)nicotinamide] | < 10 | < 100
14 | CC(c1ccc(-c2ccc(CO[C@H]3CCC[C@@H]3NC(=O)c3cc(-c4cnn(C)c4)cnc3N)cc2)cc1)N1C[C@@H](C)N(C)[C@@H](C)C1 (stereo partly drawn) [Example 209, 2-amino-5-(1-methyl-1H-pyrazol-4-yl)-N-((1S,2S)-2-((4′-(1-((3S,5R)-3,4,5-trimethylpiperazin-1-yl)ethyl)-[1,1′-biphenyl]-4-yl)methoxy)-cyclopentyl)nicotinamide] | < 10 | < 100
15 | CC(c1ccc(-c2ccc(CO[C@H]3CCC[C@@H]3NC(=O)c3cc(-c4cnn(C)c4)cnc3N)cc2)cc1)N1C[C@@H](C)N(CCO)[C@@H](C)C1 (some centres unmarked) [Example 211] | < 10 | < 100
16 | CC(c1c(F)cc(-c2ccc(CO[C@H]3CCC[C@@H]3NC(=O)c3cc(-c4cnn(C)c4)cnc3N)cc2)cc1F)N1CCN(CCO)CC1 (stereo partly drawn) [Example 212, 2-amino-N-((1S,2S)-2-((3′,5′-difluoro-4′-(1-(4-(2-hydroxyethyl)-piperazin-1-yl)ethyl)-[1,1′-biphenyl]-4-yl)methoxy)cyclopentyl)-5-(1-methyl-1H-pyrazol-4-yl)nicotinamide] | < 10 | > 1000
17 | C[C@H](c1ccc(-c2ccc(CO[C@H]3CCC[C@@H]3NC(=O)c3cc(-c4cnn(C)c4)cnc3N)cc2)cc1)N1CCNCC1 [Example 213, 2-amino-5-(1-methyl-1H-pyrazol-4-yl)-N-((1S,2S)-2-((4′-((R)-1-(piperazin-1-yl)ethyl)-[1,1′-biphenyl]-4-yl)methoxy)cyclopentyl)nicotinamide] | < 10 | 100 to 500
18 | C[C@H](c1ccc(-c2ccc(CO[C@H]3CCC[C@@H]3NC(=O)c3cc(-c4cnn(C)c4)cnc3N)cc2)cc1)N1CCN(C)CC1 [Example 214, 2-amino-5-(1-methyl-1H-pyrazol-4-yl)-N-((1S,2S)-2-((4′-((R)-1-(4-methylpiperazin-1-yl)ethyl)-[1,1′-biphenyl]-4-yl)methoxy)cyclopentyl)nicotinamide] | < 10 | < 100
19 | C[C@@H](c1ccc(-c2ccc(CO[C@H]3CCC[C@@H]3NC(=O)c3cc(-c4cnn(C)c4)cnc3N)cc2)cc1)N1CCN(C)CC1 [Example 215, 2-amino-5-(1-methyl-1H-pyrazol-4-yl)-N-((1S,2S)-2-((4′-((S)-1-(4-methylpiperazin-1-yl)ethyl)-[1,1′-biphenyl]-4-yl)methoxy)cyclopentyl)nicotinamide] | < 10 | < 100
20 | Cn1cc(-c2cnc(N)c(C(=O)N[C@H]3CCC[C@@H]3OCc3ccc(-c4ccc(C5(N6CCN(CCO)CC6)CC5)cc4)cc3)c2)cn1 [Example 220, 2-amino-N-((1S,2S)-2-((4′-(1-(4-(2-hydroxyethyl)piperazin-1-yl)cyclopropyl)-[1,1′-biphenyl]-4-yl)methoxy)cyclopentyl)-5-(1-methyl-1H-pyrazol-4-yl)nicotinamide] | < 10 | < 100
21 | C[C@@H](c1ccc(-c2ccc(CO[C@H]3CCC[C@@H]3NC(=O)c3cc(-c4ccc(F)nc4)cnc3N)cc2)cc1)N1CCN(C)CC1 [Example 222, 6-amino-6′-fluoro-N-((1S,2S)-2-((4′-((S)-1-(4-methylpiperazin-1-yl)ethyl)-[1,1′-biphenyl]-4-yl)methoxy)cyclopentyl)-[3,3′-bipyridine]-5-carboxamide] | < 10 | < 100
22 | CN1CCN(C2(c3ccc(-c4ccc(CO[C@H]5CCC[C@@H]5NC(=O)c5cc(-c6ccc(F)nc6)cnc5N)cc4)cc3)CC2)CC1 [Example 224, 6-amino-6′-fluoro-N-((1S,2S)-2-((4′-(1-(4-methylpiperazin-1-yl)cyclopropyl)-[1,1′-biphenyl]-4-yl)methoxy)cyclopentyl)-[3,3′-bipyridine]-5-carboxamide] | < 10 | 100 to 500
